Data from patent publication US4111955A, “N-Trihalomethanesulfenyl carbamoyloximino di-sulfur heterocyclic compounds” (priority 1976, dated 1978).
In brackets after ≈: the same amount, converted by molar mass.

What was measured:
[1] = tested on: bean aphid (Aphis fabae Scop.); assay: Bean Aphid Foliage Spray Test; assay type: in vivo; design: key to pesticidal activity rating, Aphid: A: excellent control; B: partial control; C: no control
Procedure: Adults and nymphal stages of the bean aphid (Aphis fabae Scop.) reared on potted dwarf nasturtium plants at 65°-70° F. and 50-70 percent relative humidity, constituted the test insects. For testing purposes, the number of aphids per pot was standardized to 100-150 by trimming plants containing excess aphids.
The test compounds were formulated by diluting the stock suspension with water to give a suspension containing 500 parts of test compound per million parts of final formulation.
The potted plants (one pot per compound tested) infested with 100-150 aphids, were placed on a revolving turntable and sprayed with 100-110 milliliters of test compound formulation by use of a DeVilbiss spray gun set at 40 psig. air pressure. This application, which lasted 25 seconds, was sufficient to wet the plants to run-off. As a control, 100-110 milliliters of a water-acetone-emulsifier solution containing no test compound were also sprayed on infested plants. After spraying, the pots were placed on their sides on a sheet of white standard mimeograph paper which had been previously ruled to facilitate counting. Temperature and humidity in the test room during the 24 hour holding period were 65°-70° F. and 50-70 percent, respectively. Aphids which fell onto the paper and were unable to remain standing after being uprighted were considered dead. Aphids remaining on the plants were observed closely for movement and those which were unable to move the length of the body upon stimulation by prodding were considered dead. Percent mortality was recorded for various concentration levels.
(§1) In these tests the pesticidal activity of the compounds against aphid, mite, Southern Armyworm, Bean Beetle and House fly was rated as follows:
(§2) The LD50 values shown in the above Table II were determined by testing the compositions over an appropriate concentration range obtained by serial dilution of the stock suspension with water. The percent kill was plotted on log-probit graph paper versus parts per million concentration, and the LD50 read from an eye-fitted line drawn through the resultant points.

[2] = tested on: house flies (Musca domestica, L.); assay: Fly Bait Test; assay type: in vivo; design: key to pesticidal activity rating, Housefly: A: excellent control; B: partial control; C: no control
Procedure: Four to 6 day old adult house flies (Musca domestica, L.), reared according to the specifications of the Chemical Specialities Manufacturing Association (Blue Book, McNair-Dorland Co., N.Y. 1954; pages 243-244, 261) under controlled conditions of 80°±5° F. and 50±5 percent relative humidity, were the test insects. The flies were immobilized by anesthetizing with carbon dioxide and twenty five immobilized individuals, males and females, were transferred to a cage consisting of a standard food strainer about 5 inches in diameter which was inverted over a wrapping-paper-covered surface. The test compounds were formulated by diluting the stock suspension with a 10 percent (by weight) sugar solution to give a suspension containing 500 parts of test compound per million parts of final formulation, by weight. Ten milliliters of the test formulation were added to a souffle cup containing a 1-inch square of an absorbent cotton pad. This bait cup was introduced and centered on the blotting paper under the food strainer prior to admitting the anesthetized flies. The caged flies were allowed to feed on the bait for 24 hours, at a temperature of 80°±5° F. and the relative humidity of 50±5 percent.
as §1, §2

[3] = tested on: two-spotted mite (Tetranychus urticae Koch); assay: Mite Foliage Spray Test; assay type: in vivo; design: key to pesticidal activity rating, Mite: A: excellent control; B: partial control; C: no control
Procedure: (§3) Adults and nymphal stages of the two-spotted mite (Tetranychus urticae Koch), reared on Tendergreen bean plants at 80±5 percent relative humidity, were the test organisms. Infested leaves from a stock culture were placed on the primary leaves of two bean plants 6 to 8 inches in height, growing in a 21/2 inch clay pot. 150-200 Mites, a sufficient number for testing, transferred from the excised leaves to the fresh plants in a period of 24 hours. Following the 24 hour transfer period, the excised leaves were removed from the infested plants. The test compounds were formulated by diluting the stock suspension with water to give a suspension containing 500 parts of test compound per million parts of final formulation. The potted plants (one pot per compound) were placed on a revolving turntable and sprayed with 100-110 milliliters of test compound formulation by use of a DeVilbiss spray gun set at 40 psig. air pressure. This application, which lasted 25 seconds, was sufficient to wet the plants to run-off. As a control, 100-110 milliliters of a water solution containing acetone and emulsifier in the same concentrations as the test compound formulation, but containing no test compound, were also sprayed on infested plants. The sprayed plants were held at 80±5 percent relative humidity for 6 days, after which a mortality count of motile forms was made. Microscopic examination for motile forms was made on the leaves of the test plants. Any individual which was capable of locomotion upon prodding was considered living.
as §1, §2

[4] = Peroral toxicity to mammals (rat); assay type: in vivo; conditions: in vivo, po; rat, peroral, Table II; read-out: Rat P.O. LD50
Procedure: (§4) Certain of these compositions were also evaluated to determine their peroral toxicity to mammals. The animal selected for this experiment was the rat. The test results obtained are expressed in terms of the number of milligrams of composition per kilogram of weight of the animal required to achieve a mortality rate of 50 percent (LD50).

rat = assay: Peroral toxicity to mammals (rat); assay type: in vivo; conditions: fraction of the toxicity of the methylcarbamoyl compound; rat P.O. LD50
Procedure: as §4

mites = assay: Systemic miticidal activity (soil drench of infested bean plants); assay type: in vivo, Tetranychus urticae Koch; conditions: Table II
Procedure: as §3, §2
Systemic treatments were made by drenching 20 milliliters of the test compound formulation into the soil around the roots of bean plants growing in 21/2 inch clay pots. […]

CN(SC(Cl)(Cl)Cl)C(=O)ON=C1CSCCS1 [2-[(N-METHYL-N-TRICHLOROMETHANESULFENYL)-CARBAMOYLOXIMINO]-1,4-DITHIANE]
pesticidal activity rating, Aphid ([1]; 500 parts per million, 24 hour): A
LC50 ([1]; Aphis fabae, foliar, 24 h, Table II, read-out: Insect Toxicity, LD50, Aphid): 13 µg/mL (≈ 36.5 µM)
pesticidal activity rating, Housefly ([2]; 500 parts per million, 24 hours): A
LC50 ([2]; Musca domestica, 24 h, Table II, read-out: Insect Toxicity, LD50, House fly): 2 µg/mL (≈ 5.62 µM)
pesticidal activity rating, Mite ([3]; 500 parts per million, 6 days): A
LC50 ([3]; Tetranychus urticae, foliar, Table II, read-out: Insect Toxicity, LD50, Mite): 7 µg/mL (≈ 19.7 µM)
LD50 [4]: 149 mg/kg
mammalian toxicity relative to the methylcarbamoyl compound (rat): 1/10
systemic activity relative to the methylcarbamoyl composition (mites): higher degree of systemic activity
LC50 (mites; Tetranychus urticae, systemic, soil drench, value in parentheses, read-out: Insect Toxicity, LD50, Mite, systemic activity): 3 µg/mL (≈ 8.43 µM)
